Values of other authors in US20070020177A1, “Radiometal complex compositions” (priority 2003, published 2007).

^99mTc-TRODAT-1
stable at room temperature (Fan et al): 24 h | radiochemical purity reached by kit (minimum of 10 μg tropane conjugate in the kit, autoclave heating 30 minutes, Choi et al): greater than 90%
